Measured values published in ChEMBL document CHEMBL2346660, “Synthesis and biological evaluation of trans 6-methoxy-1,1-dimethyl-2-phenyl-3-aryl-2,3-dihydro-1H-inden-4-yloxyalkylamine derivatives against drug susceptible, non-replicating M. tuberculosis H37Rv and clinical multidrug resistant strains” (Bioorg Med Chem Lett, 2013).
Converted amounts (≈) assume the structure as drawn.

Tests used:
[1] = test system: Mycobacterium tuberculosis; test: Antimicrobial activity against rifampicin-resistant and INH-resistant Mycobacterium tuberculosis 1678/05 by agar dilution method and BACTEC radiometric method; type: functional
[2] = test system: Mycobacterium tuberculosis; test: Antimicrobial activity against rifampicin-resistant and INH-resistant Mycobacterium tuberculosis 2643 by agar dilution method and BACTEC radiometric method; type: functional

SMILES | MIC [1] [µg/mL] | MIC [2] [µg/mL]
COc1cc(OCCN2CCCCCC2)c2c(c1)C(C)(C)[C@H](c1ccccc1)[C@H]2c1c(OC)ccc2ccccc12 (relative stereo) | 3.12 (≈ 5.68 µM) | 3.12 (≈ 5.68 µM)
COc1cc(OCCN(C(C)C)C(C)C)c2c(c1)C(C)(C)[C@H](c1ccccc1)[C@H]2c1ccccc1 (relative stereo) | 6.25 (≈ 13.3 µM) | 6.25 (≈ 13.3 µM)
